“Also recorded” adds a separate entry of the source. Non-standard residues stand in square brackets, D forms with d. Residues, ends and D or L forms follow the SMILES beside them. Nrpe = C[C@@H](NCC(=O)O)c1ccccc1; NFurfurylGly = O=C(O)CNCc1ccco1; Nleu = CC(C)CNCC(=O)O; Nlys = NCCCCNCC(=O)O

We go through one compound from patent US20130178835A1, “IDENTIFYING SYNTHETIC LIGANDS THAT BIND T-CELLS FROM PATIENTS HAVING AN AUTOIMMUNE DISEASE” (The Board of Regents of the University of Texas System, priority 2009, published 2013).

Test [1] concerns Vα2.3/Vβ8.2 MBP Acl-11 TCR transgenic T cells. Kind of test: Flow cytometry binding assay (periodate cross-linking, streptavidin-APC MFI). Details: species or system mouse. To be noted: biotin-DOPA-AG12A 1-500 μM, cross-linked with periodate; MFI fitted with Graphpad Prism; estimated. As to the method:
Following isolation of CD4+ T cells from TCR transgenic mice and WT controls, cells were washed and resuspended in 0.1% PBS/BSA (FACS buffer). The cells were incubated with increasing concentrations (1 μM, 10 μM, 100 μM, 250 μM, or 500 μM) of either the biotin-DOPA-AG12A peptoid or a biotin-DOPA-control peptoid and incubated for 30 min at 37° C. 5 mM sodium periodate was added to the cells briefly to cross-link the peptoid to the target receptor. This reaction was quenched with DTT and the cells were washed twice with 0.1% PBS/BSA. Fc block (BD Biosciences) was added to the cells for 15 min on ice in order to reduce non-specific binding to Fc receptors. The cells were stained with 1 μg anti CD4-PerCp Cy5.5 antibody and 0.02 μg streptavidin-APC antibody (BD Biosciences) for 15 minutes on ice. The staining was followed by 2 washes with 0.1% PBS/BSA and the cells were run on a FACS Calibur flow cytometer to assess peptoid binding. The data were analyzed using Flowjo software (Treestar) to determine the mean fluorescent intensity and are shown as histograms. The mean fluorescent intensities (MFI) were plotted using Graphpad Prism software to determine an estimated Kd value and are depicted as a line graph.

Test [2] concerns CD4+ T cells from MBP Acl-11 TCR transgenic mice. As to the kind of experiment: Binding of quantum dot-labeled T cells to peptoid resynthesized on beads. Details: species or system mouse. The conditions noted are these: Tentagel beads, red quantum dot-labeled T cells. The text has this:
Approximately 300,000 beads were swelled in DMF, washed with PBS, and equilibrated in complete RPMI 1640 media containing 3% BSA. CD4+ T cells isolated from either EAE or wild-type mice were resuspended in RPMI and labeled using quantum dots (Invitrogen) according to manufacturer's instructions. CD4+ T cells from EAE mice were labeled with Qtracker 655 (red) and CD4+ T cells from wild-type mice were labeled with Qtracker 565 (green). Labeled cells were mixed in a 1:1 ratio with a total of approximately 10×10^6 of each cell type. The cells were then incubated with the peptoid bead library overnight in a 37° C. incubator with 5% CO2 and gentle shaking. The beads were gently washed 2 times with RPMI media and were then visualized under a fluorescent microscope (Olympus BX-51) with excitation 340-380 nm using a DAPI filter (100×total magnification). Beads binding only to red labeled cells were selected manually using a 20 μl pipette. The “hit” beads were then washed, boiled with 1% SDS for 30 minutes and subjected to automated Edman sequencing.
To determine whether AG12A was binding to the autoreactive TCR, the inventors took advantage of the existence of transgenic mice, in which the vast majority of CD4+ T cells express the MBP Acl-11 specific TCR (Vα2.3/Vβ8.2 TCR) (Goverman et al., 1993). CD4+ T cells were isolated from these mice and tested for binding to AG12A. […]

Test [3] has as its system CD4+ T cells from B10.PL wild-type control mice. The description is as above. Details: species or system mouse. The conditions noted are these: Tentagel beads, red quantum dot-labeled T cells. As to the method:
Approximately 300,000 beads were swelled in DMF, washed with PBS, and equilibrated in complete RPMI 1640 media containing 3% BSA. CD4+ T cells isolated from either EAE or wild-type mice were resuspended in RPMI and labeled using quantum dots (Invitrogen) according to manufacturer's instructions. […] Labeled cells were mixed in a 1:1 ratio with a total of approximately 10×10^6 of each cell type. The cells were then incubated with the peptoid bead library overnight in a 37° C. incubator with 5% CO2 and gentle shaking. The beads were gently washed 2 times with RPMI media and were then visualized under a fluorescent microscope (Olympus BX-51) with excitation 340-380 nm using a DAPI filter (100×total magnification). Beads binding only to red labeled cells were selected manually using a 20 μl pipette. The “hit” beads were then washed, boiled with 1% SDS for 30 minutes and subjected to automated Edman sequencing.
To determine whether AG12A was binding to the autoreactive TCR, the inventors took advantage of the existence of transgenic mice, in which the vast majority of CD4+ T cells express the MBP Acl-11 specific TCR (Vα2.3/Vβ8.2 TCR) (Goverman et al., 1993). CD4+ T cells were isolated from these mice and tested for binding to AG12A. This was done in several ways. First, AG12A was resynthesized on beads, as was a control peptoid not selected as a T cell ligand (FIG. 6). […]

Test [4] has as its system B cells from B10.PL wild-type mice. As to the kind of experiment: CFSE proliferation assay. It counts as cell-based, mouse. To be noted: 1-500 μM peptoid, stimulated with LPS. As to the method: (§1) Following CD4+ T cell isolation, Vα2.3Vβ8.2 TCR transgenic T cells, B cells, or MOG-35-55 TCR transgenic T cells were labeled with CFSE (molecular probes) according to manufacturer's instructions. Briefly, cells were resuspended at a concentration of 1×10^6 per ml in PBS and incubated with 0.5 μM CFSE at 37° C. for 10 min. The staining was quenched with addition of 5 volumes of culture media containing 10% FBS. The cells were centrifuged, washed, and resuspended in complete RPMI 1640 media. The cells were then plated at 1×10^6 per ml. and incubated with increasing concentrations of either AG12A peptoid or a control peptoid (1 μM, 10 μM, 20 μM, 40 μM, 60 μM, 80 μM, 100 μM, 200 μM, or 500 μM) for 30 min at 37° C. Antigen presenting cells were isolated from spleens of WT B10.PL mice and 10 μg/ml of MBP Acl-11, MOG 35-55, or LPS were then added to the culture to stimulate the cells. The cells were left in culture for 5 days, stained with an anti-CD4-PerCp antibody (BD Biosciences), and run on the FACS Calibur flow cytometer to assess cell division. The data were analyzed using Flowjo software (Treestar) proliferation platform to determine percentage of dividing cells. The percent division was graphed using Graphpad Prism software and depicted as a line graph.

In test [5] the test system is CD4+ MBP Acl-11 specific murine TCR transgenic T cells. As to the kind of experiment: CFSE proliferation assay. To be noted: 1-500 μM peptoid, MBP Acl-11 peptide 10 μg/ml and antigen presenting cells, 5 days. In kind it is cell-based, mouse. As for the experimental part: as §1
Test [6] deals with CD4+ T cells from MOG 35-55 TCR transgenic mice. As to the kind of experiment: CFSE proliferation assay. In kind it is cell-based, mouse. To be noted: 1-500 μM peptoid, stimulated with MOG 35-55 peptide and antigen presenting cells. As to the method: as §1

As to `CC(C)CN(CC(=O)N(CCCCN)CC(=O)N(CC(=O)N(CC(=O)N(CCCCN)CC(=O)N(CC(=O)N(CCCCN)CC(=O)N(CCCCN)CC(N)=O)CC(C)C)[C@H](C)c1ccccc1)Cc1ccco1)C(=O)CNCCCCN` [AG12A] (H-[Nlys][Nleu][Nlys][NFurfurylGly][Nrpe][Nlys][Nleu][Nlys][Nlys]-NH2), the Kd in test [1] was roughly 40 µM. Also, the “binding of T cells to peptoid displayed on beads” value in test [2] is given as “bound; also recorded: bind to AG12A peptoid beads”; in test [3], “did not; also recorded: do not bind”. The “inhibition of proliferation (percent division)” value is on record as “nor did AG12A inhibit” in test [4], “inhibits proliferation” in test [5] and “did not inhibit” in test [6].

By Kd is commonly meant the equilibrium constant for the complex coming apart.
